Biological target: T1, Solute carrier family 26 member 9 (Homo sapiens) (UniProt Q7LBE3)
T1 sequence (whole entry): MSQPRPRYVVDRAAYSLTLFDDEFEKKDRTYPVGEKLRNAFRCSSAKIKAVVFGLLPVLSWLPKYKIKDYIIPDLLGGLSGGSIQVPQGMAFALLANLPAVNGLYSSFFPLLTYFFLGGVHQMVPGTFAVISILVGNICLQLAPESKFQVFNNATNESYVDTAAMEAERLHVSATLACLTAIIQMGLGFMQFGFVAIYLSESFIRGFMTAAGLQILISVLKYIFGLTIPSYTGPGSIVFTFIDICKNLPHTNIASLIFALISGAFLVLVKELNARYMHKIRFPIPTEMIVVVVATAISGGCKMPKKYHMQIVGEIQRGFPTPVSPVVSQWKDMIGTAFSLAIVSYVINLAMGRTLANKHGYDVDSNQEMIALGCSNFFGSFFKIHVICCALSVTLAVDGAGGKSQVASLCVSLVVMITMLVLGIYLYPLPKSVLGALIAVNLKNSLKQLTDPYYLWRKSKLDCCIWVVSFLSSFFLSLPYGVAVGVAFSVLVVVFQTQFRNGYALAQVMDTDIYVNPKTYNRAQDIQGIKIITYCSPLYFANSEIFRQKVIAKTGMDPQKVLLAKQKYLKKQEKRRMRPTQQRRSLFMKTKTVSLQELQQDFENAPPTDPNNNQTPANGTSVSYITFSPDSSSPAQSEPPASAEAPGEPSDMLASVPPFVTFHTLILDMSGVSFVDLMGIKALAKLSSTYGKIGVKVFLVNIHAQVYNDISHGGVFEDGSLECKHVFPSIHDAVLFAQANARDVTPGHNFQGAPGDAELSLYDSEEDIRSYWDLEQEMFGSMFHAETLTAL
Assay: Chloride uptake by the Anion Transporter/Exchanger Protein 9 (SLC26A9) as assessed by a Cl- sensitive FRET (Fluorescence Resonance Energy Transfer) sensor (SuperClomeleon) in HEK-293 cells stably transfected with SLC26A9 (PubChem AID: 1794832)
Type: functional, cell-based
Conditions: HEK293

Inhibition (500 µM) [%] | SMILES | proof of principle
 | Cl | Substrate. In Comparison To Wild-Type, Cells Expressing Slc26A9 Showed A Specific Transporter Activity, Upon Substrate Addition, Detected As Significantly Higher Sensor Fluorescence Quenching.
> 30 | O=C(O)c1cccnc1Nc1cccc(C(F)(F)F)c1 | 

— ChEMBL document CHEMBL5209566, “Superclomeleon biosensor-based assay for SLC26A9 using HEK293 SLC26A9 JumpIn OE cells” (2022)
